Experiments:
Assay in all cases: KINOMEscan competition binding
Settings in all cases: compound 10.0 µM
PAK1 (human) = PAK1 (human) (UniProt Q13153)
NTRK3 (human) = NTRK3 (human) (UniProt Q16288)
[1] = target: TYK2 JH1 catalytic (human) (UniProt P29597)
PRKG2 (human) = PRKG2 (human) (UniProt Q13237)
MST1R (human) = MST1R (human) (UniProt Q04912)
PRPF4B (human) = PRPF4B (human) (UniProt Q13523)
RPS6KA1 KD2 (human) = RPS6KA1 KD2 (human) (UniProt Q15418)
STK17B (human) = STK17B (human) (UniProt O94768)
MAP4K5 (human) = MAP4K5 (human) (UniProt Q9Y4K4)
MAPK15 (human) = MAPK15 (human) (UniProt Q8TD08)
CSK (human) = CSK (human) (UniProt P41240)
TNIK (human) = TNIK (human) (UniProt Q9UKE5)
PLK3 (human) = PLK3 (human) (UniProt Q9H4B4)
RIOK3 (human) = RIOK3 (human) (UniProt O14730)
PHKG2 (human) = PHKG2 (human) (UniProt P15735)
ERN1 (human) = ERN1 (human) (UniProt O75460)
MAPK8 (human) = MAPK8 (human) (UniProt P45983)
TSSK1B (human) = TSSK1B (human) (UniProt Q9BXA7)
NEK3 (human) = NEK3 (human) (UniProt P51956)
[2] = test system: FLT3 (human), P36888 [D835Y]
SGK110 (human) = SGK110 (human) (UniProt P0C264)
BLK (human) = BLK (human) (UniProt P51451)
HIPK1 (human) = HIPK1 (human) (UniProt Q86Z02)
RPS6KA4 KD1 (human) = RPS6KA4 KD1 (human) (UniProt O75676)
NEK7 (human) = NEK7 (human) (UniProt Q8TDX7)
BRSK1 (human) = BRSK1 (human) (UniProt Q8TDC3)
SNRK (human) = SNRK (human) (UniProt Q9NRH2)
ADCK3 (human) = ADCK3 (human) (UniProt Q8NI60)
CDC42BPG (human) = CDC42BPG (human) (UniProt Q6DT37)
CaMK1 (human) = CaMK1 (human) (UniProt Q14012)
CDK18 (human) = CDK18 (human) (UniProt Q07002)
[3] = test system: EGFR (human), P00533 [G719C]
IRAK1 (human) = IRAK1 (human) (UniProt P51617)
FLT1 (human) = FLT1 (human) (UniProt P17948)
TLK1 (human) = TLK1 (human) (UniProt Q9UKI8)
MATK (human) = MATK (human) (UniProt P42679)
CDK4 CCND3 (human) = CDK4 CCND3 (human) (UniProt P11802+P30281)
ANKK1 (human) = ANKK1 (human) (UniProt Q8NFD2)
[4] = test system: BMX (human), P51813 [V600E]
MAP2K2 (human) = MAP2K2 (human) (UniProt P36507)

Sequence of RPS6KA1 KD2 (human) (Q15418 whole entry, looked up): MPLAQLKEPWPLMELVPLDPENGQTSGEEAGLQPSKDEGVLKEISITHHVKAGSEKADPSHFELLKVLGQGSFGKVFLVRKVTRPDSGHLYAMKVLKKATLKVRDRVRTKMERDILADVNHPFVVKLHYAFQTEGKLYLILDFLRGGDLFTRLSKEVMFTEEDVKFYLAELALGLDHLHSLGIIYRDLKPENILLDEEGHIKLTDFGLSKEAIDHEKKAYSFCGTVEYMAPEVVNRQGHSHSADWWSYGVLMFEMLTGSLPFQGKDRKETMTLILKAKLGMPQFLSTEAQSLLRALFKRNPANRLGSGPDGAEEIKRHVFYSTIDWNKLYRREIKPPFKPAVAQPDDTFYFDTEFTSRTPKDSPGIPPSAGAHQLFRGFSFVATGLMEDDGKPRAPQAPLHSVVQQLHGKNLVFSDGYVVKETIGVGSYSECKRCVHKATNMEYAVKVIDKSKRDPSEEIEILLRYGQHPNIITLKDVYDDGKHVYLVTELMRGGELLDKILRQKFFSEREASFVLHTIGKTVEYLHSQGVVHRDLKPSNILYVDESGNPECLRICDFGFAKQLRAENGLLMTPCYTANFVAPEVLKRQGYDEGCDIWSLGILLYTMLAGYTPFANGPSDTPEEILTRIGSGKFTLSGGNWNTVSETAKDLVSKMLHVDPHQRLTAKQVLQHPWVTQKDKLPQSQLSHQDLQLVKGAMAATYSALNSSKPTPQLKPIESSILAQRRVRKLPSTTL
Sequence of CDK18 (human) (Q07002 whole entry, looked up): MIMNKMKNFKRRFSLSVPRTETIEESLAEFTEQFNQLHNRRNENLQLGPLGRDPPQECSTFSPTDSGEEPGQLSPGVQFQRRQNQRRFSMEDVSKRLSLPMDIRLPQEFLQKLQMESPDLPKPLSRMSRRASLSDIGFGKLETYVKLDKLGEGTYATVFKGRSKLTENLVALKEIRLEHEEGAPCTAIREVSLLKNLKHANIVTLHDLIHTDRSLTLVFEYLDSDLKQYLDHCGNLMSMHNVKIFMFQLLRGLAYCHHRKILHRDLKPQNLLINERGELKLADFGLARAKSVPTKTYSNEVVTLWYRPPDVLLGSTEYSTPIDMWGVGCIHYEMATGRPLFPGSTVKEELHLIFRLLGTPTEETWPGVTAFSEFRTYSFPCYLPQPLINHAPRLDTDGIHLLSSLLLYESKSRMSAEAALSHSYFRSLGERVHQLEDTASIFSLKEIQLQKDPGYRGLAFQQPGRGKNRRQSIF
Sequence of SNRK (human) (Q9NRH2 whole entry, looked up): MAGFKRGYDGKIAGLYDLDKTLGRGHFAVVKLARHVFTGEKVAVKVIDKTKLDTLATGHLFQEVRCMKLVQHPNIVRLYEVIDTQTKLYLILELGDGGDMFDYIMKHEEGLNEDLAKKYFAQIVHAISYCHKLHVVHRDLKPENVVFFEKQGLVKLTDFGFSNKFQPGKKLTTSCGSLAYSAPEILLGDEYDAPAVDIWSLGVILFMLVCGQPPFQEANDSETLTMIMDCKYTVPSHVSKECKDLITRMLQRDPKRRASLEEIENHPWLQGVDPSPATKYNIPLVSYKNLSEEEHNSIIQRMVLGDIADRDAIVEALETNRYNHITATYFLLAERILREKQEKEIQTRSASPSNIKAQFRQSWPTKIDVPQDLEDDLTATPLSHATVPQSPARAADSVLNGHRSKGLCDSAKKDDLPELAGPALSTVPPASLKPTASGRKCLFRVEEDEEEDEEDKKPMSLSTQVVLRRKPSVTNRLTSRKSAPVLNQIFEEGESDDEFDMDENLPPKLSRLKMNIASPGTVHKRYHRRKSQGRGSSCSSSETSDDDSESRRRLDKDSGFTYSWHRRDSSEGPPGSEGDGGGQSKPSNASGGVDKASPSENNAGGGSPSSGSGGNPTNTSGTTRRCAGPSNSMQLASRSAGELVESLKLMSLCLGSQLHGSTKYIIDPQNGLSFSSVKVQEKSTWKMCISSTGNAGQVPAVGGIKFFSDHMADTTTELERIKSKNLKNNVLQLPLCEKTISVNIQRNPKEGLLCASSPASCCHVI
Sequence of HIPK1 (human) (Q86Z02 whole entry, looked up): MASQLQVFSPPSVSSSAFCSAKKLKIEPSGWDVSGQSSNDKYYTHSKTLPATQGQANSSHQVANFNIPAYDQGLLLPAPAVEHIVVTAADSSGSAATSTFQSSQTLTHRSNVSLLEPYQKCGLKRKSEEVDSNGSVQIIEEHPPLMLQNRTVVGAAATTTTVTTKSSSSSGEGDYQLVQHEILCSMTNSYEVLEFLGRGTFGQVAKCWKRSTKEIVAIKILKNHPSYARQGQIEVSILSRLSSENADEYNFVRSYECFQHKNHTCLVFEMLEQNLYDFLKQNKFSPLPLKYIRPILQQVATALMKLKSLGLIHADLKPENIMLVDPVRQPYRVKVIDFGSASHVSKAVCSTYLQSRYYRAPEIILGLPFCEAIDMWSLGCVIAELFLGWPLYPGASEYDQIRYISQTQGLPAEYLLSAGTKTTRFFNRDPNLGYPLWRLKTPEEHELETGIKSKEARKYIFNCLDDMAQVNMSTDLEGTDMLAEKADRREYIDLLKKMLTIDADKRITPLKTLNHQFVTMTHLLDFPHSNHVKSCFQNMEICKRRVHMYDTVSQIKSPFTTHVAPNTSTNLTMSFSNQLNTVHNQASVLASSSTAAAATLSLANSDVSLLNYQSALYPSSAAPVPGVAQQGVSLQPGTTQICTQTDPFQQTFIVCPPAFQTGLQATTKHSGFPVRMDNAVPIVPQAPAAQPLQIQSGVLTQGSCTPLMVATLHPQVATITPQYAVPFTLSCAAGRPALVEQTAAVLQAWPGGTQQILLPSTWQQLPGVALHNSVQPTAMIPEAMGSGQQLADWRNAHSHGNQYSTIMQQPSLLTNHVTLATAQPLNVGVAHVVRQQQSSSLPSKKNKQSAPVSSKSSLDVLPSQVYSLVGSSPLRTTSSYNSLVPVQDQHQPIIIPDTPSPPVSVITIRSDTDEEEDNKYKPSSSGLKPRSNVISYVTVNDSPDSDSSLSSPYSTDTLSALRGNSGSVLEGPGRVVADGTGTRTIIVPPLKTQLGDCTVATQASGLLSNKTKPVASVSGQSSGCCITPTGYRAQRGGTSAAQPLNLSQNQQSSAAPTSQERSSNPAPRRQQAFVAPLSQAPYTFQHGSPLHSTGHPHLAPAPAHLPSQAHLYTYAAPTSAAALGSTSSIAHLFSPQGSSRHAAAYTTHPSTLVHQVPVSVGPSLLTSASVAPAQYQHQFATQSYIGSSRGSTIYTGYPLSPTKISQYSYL
Sequence of TYK2 JH1 catalytic (human) (P29597 whole entry, looked up): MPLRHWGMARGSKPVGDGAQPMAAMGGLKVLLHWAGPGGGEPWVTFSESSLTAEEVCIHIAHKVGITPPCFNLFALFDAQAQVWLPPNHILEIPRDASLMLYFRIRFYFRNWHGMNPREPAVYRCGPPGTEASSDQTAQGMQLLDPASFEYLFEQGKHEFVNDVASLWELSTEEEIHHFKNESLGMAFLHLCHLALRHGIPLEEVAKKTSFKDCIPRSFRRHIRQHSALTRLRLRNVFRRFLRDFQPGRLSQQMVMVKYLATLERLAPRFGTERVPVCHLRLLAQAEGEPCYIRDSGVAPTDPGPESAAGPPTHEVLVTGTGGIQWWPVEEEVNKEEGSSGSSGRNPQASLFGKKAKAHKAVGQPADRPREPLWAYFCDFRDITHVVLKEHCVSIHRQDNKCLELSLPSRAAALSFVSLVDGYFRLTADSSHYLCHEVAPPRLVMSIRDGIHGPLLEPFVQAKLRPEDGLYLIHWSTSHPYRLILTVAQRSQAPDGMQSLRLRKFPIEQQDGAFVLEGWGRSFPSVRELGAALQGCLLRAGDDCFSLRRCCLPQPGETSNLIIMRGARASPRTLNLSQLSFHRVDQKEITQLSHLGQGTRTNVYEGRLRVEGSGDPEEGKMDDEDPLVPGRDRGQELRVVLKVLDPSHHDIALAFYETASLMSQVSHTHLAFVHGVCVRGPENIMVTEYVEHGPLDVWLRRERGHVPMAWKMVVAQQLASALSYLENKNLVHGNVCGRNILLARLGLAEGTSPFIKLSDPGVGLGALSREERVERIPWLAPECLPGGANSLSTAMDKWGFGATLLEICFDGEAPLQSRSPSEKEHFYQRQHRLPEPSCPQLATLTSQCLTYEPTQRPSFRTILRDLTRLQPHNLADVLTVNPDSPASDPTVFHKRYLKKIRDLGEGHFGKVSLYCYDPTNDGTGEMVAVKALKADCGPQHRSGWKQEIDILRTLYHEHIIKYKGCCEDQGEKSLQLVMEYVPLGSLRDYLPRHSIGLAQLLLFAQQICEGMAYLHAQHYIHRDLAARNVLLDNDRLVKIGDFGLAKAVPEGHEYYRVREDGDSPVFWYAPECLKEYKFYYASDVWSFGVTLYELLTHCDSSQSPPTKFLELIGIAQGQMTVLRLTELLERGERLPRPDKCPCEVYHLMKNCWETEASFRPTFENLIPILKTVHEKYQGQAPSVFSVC
Sequence of TSSK1B (human) (Q9BXA7 whole entry, looked up): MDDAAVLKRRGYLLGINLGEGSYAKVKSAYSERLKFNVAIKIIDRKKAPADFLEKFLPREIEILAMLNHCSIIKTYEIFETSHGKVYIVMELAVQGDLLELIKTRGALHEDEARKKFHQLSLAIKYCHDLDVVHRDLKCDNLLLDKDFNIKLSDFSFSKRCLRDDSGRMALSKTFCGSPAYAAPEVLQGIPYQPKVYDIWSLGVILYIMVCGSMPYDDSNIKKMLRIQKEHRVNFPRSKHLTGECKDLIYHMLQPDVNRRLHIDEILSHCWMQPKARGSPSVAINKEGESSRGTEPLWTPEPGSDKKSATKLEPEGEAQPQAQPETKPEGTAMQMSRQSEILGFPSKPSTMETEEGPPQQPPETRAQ
Sequence of NEK7 (human) (Q8TDX7 whole entry, looked up): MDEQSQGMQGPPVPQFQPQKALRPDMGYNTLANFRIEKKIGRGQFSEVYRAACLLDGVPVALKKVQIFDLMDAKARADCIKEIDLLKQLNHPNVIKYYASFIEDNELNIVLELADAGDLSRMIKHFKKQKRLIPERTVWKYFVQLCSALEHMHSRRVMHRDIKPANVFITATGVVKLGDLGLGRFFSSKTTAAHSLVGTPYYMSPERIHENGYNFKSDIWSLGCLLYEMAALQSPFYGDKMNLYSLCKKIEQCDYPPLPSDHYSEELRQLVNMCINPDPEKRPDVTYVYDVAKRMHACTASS

| Compound | kinase still bound, per cent of control (PAK1 (human)) | kinase still bound, per cent of control (NTRK3 (human)) | kinase still bound, per cent of control [1] | kinase still bound, per cent of control (PRKG2 (human)) | kinase still bound, per cent of control (MST1R (human)) | kinase still bound, per cent of control (PRPF4B (human)) | kinase still bound, per cent of control (RPS6KA1 KD2 (human)) | kinase still bound, per cent of control (STK17B (human)) | kinase still bound, per cent of control (MAP4K5 (human)) | kinase still bound, per cent of control (MAPK15 (human)) | kinase still bound, per cent of control (CSK (human)) | kinase still bound, per cent of control (TNIK (human)) | kinase still bound, per cent of control (PLK3 (human)) | kinase still bound, per cent of control (RIOK3 (human)) | kinase still bound, per cent of control (PHKG2 (human)) | kinase still bound, per cent of control (ERN1 (human)) | kinase still bound, per cent of control (MAPK8 (human)) | kinase still bound, per cent of control (TSSK1B (human)) | kinase still bound, per cent of control (NEK3 (human)) | kinase still bound, per cent of control [2] | also measured |
| --- | --- | --- | --- | --- | --- | --- | --- | --- | --- | --- | --- | --- | --- | --- | --- | --- | --- | --- | --- | --- | --- |
| COc1cc2ncnc(Nc3cccc(Cl)c3)c2cc1OC | 85% | 87% | 52% | 82% | 100% | 84% | 28% | 40% | 26% | 100% | 62% | 26% | 85% | 78% | 93% | 41% | 38% | 100% | 78% | 11% | kinase still bound, per cent of control (SGK110 (human)): 65%; kinase still bound, per cent of control (BLK (human)): 7.1%; kinase still bound, per cent of control (HIPK1 (human)): 48%; kinase still bound, per cent of control (RPS6KA4 KD1 (human)): 100%; kinase still bound, per cent of control (NEK7 (human)): 88%; kinase still bound, per cent of control (BRSK1 (human)): 37%; kinase still bound, per cent of control (SNRK (human)): 71%; kinase still bound, per cent of control (ADCK3 (human)): 56%; kinase still bound, per cent of control (CDC42BPG (human)): 56%; kinase still bound, per cent of control (CaMK1 (human)): 81%; kinase still bound, per cent of control (CDK18 (human)): 79%; kinase still bound, per cent of control [3]: 0.1%; kinase still bound, per cent of control (IRAK1 (human)): 5.6%; kinase still bound, per cent of control (FLT1 (human)): 75%; kinase still bound, per cent of control (TLK1 (human)): 87%; kinase still bound, per cent of control (MATK (human)): 48%; kinase still bound, per cent of control (CDK4 CCND3 (human)): 93%; kinase still bound, per cent of control (ANKK1 (human)): 63%; kinase still bound, per cent of control [4]: 55%; kinase still bound, per cent of control (MAP2K2 (human)): 25% |
| CC1=C(C(=O)Nc2cc3cn[nH]c3cc2F)C(c2ccc(C(F)(F)F)cc2)CC(=O)N1 (stereo not given) | 81% | 100% | 20% | 29% | 55% | 86% | 83% | 100% | 90% | 80% | 100% | 100% | 84% | 100% | 92% | 71% | 85% | 98% | 100% | 74% | kinase still bound, per cent of control (SGK110 (human)): 59%; kinase still bound, per cent of control (BLK (human)): 12%; kinase still bound, per cent of control (HIPK1 (human)): 75%; kinase still bound, per cent of control (RPS6KA4 KD1 (human)): 98%; kinase still bound, per cent of control (NEK7 (human)): 78%; kinase still bound, per cent of control (BRSK1 (human)): 93%; kinase still bound, per cent of control (SNRK (human)): 100%; kinase still bound, per cent of control (ADCK3 (human)): 76%; kinase still bound, per cent of control (CDC42BPG (human)): 83%; kinase still bound, per cent of control (CaMK1 (human)): 93%; kinase still bound, per cent of control (CDK18 (human)): 100%; kinase still bound, per cent of control [3]: 37%; kinase still bound, per cent of control (IRAK1 (human)): 90%; kinase still bound, per cent of control (FLT1 (human)): 77%; kinase still bound, per cent of control (TLK1 (human)): 90%; kinase still bound, per cent of control (MATK (human)): 68%; kinase still bound, per cent of control (CDK4 CCND3 (human)): 77%; kinase still bound, per cent of control (ANKK1 (human)): 97%; kinase still bound, per cent of control [4]: 87%; kinase still bound, per cent of control (MAP2K2 (human)): 64% |

Reference: the kinase profiling compilation of Christmann-Franck et al. (2016)
